Source: patent US20070232590A1, “3-Cylcoalkylbenzazepines as Histamine H3 Antagonists” (GLAXO GROUP LIMITED, priority 2004, published 2007)

Legend:
histamine H3 receptor [1] = target: T1, histamine H3 receptor (Homo sapiens, UniProt Q9Y5N1); test: Histamine H3 functional antagonist assay (method A), [35S]-GTPγS SPA on membranes; assay type: biochemical; conditions: functional pKi, membrane from cultured H3 cells (CHO K1), histamine at EC80, averages of a number of experiments, read-out: Antagonism (fpKi) (converted)
T1 construct: expressed in transfected cells; host or cells: CHO K1 cells carrying pSwitch, transfected with pGeneH3 and induced with mifepristone; clone 3H3; membrane preparation
T1 sequence (Q9Y5N1 whole entry): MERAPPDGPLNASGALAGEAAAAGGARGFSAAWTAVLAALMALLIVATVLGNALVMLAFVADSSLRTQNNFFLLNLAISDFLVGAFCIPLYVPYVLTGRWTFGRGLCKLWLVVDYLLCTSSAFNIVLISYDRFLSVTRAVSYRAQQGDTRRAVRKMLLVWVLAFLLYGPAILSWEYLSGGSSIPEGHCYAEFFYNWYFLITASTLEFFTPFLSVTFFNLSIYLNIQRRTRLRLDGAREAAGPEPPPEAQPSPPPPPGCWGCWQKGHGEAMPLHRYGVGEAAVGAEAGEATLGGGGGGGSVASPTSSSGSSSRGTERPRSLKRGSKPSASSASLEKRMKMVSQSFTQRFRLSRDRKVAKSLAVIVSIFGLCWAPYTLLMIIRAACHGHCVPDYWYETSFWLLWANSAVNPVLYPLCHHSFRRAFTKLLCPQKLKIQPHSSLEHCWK
From the text: (§1) A membrane preparation containing histamine H3 receptors may be prepared in accordance with the following procedures:
(§2) (i) Generation of Histamine H3 Cell Line
(§3) DNA encoding the human histamine H3 gene (Huvar, A. et al. (1999) Mol. Pharmacol. 55(6), 1101-1107) was cloned into a holding vector, pCDNA3.1 TOPO (InVitrogen) and its cDNA was isolated from this vector by restriction digestion of plasmid DNA with the enzymes BamH1 and Not-1 and ligated into the inducible expression vector pGene (InVitrogen) digested with the same enzymes. The GeneSwitch™ system (a system where in transgene expression is switched off in the absence of an inducer and switched on in the presence of an inducer) was performed as described in U.S. Pat. Nos. 5,364,791; 5,874,534; and 5,935,934. Ligated DNA was transformed into competent DH5α E. coli host bacterial cells and plated onto Luria Broth (LB) agar containing Zeocin™ (an antibiotic which allows the selection of cells expressing the sh ble gene which is present on pGene and pSwitch) at 50 μg ml^−1. Colonies containing the re-ligated plasmid were identified by restriction analysis. DNA for transfection into mammalian cells was prepared from 250 ml cultures of the host bacterium containing the pGeneH3 plasmid and isolated using a DNA preparation kit (Qiagen Midi-Prep) as per manufacturers guidelines (Qiagen).
CHO K1 cells previously transfected with the pSwitch regulatory plasmid (InVitrogen) were seeded at 2×10e6 cells per T75 flask in Complete Medium, containing Hams F12 (GIBCOBRL, Life Technologies) medium supplemented with 10% v/v dialysed foetal bovine serum, L-glutamine, and hygromycin (100 μg ml^−1), 24 hours prior to use. Plasmid DNA was transfected into the cells using Lipofectamine plus according to the manufacturers guidelines (InVitrogen). 48 hours post transfection cells were placed into complete medium supplemented with 500 μg ml^−1 Zeocin™.
10-14 days post selection 10 nM Mifepristone (InVitrogen), was added to the culture medium to induce the expression of the receptor. 18 hours post induction cells were detached from the flask using ethylenediamine tetra-acetic acid (EDTA; 1:5000; InVitrogen), following several washes with phosphate buffered saline pH 7.4 and resuspended in Sorting Medium containing Minimum Essential Medium (MEM), without phenol red, and supplemented with Earles salts and 3% Foetal Clone II (Hyclone). Approximately 1×10e7 cells were examined for receptor expression by staining with a rabbit polyclonal antibody, 4a, raised against the N-terminal domain of the histamine H3 receptor, incubated on ice for 60 minutes, followed by two washes in sorting medium. Receptor bound antibody was detected by incubation of the cells for 60 minutes on ice with a goat anti rabbit antibody, conjugated with Alexa 488 fluorescence marker (Molecular Probes). Following two further washes with Sorting Medium, cells were filtered through a 50 μm Filcon™ (BD Biosciences) and then analysed on a FACS Vantage SE Flow Cytometer fitted with an Automatic Cell Deposition Unit. Control cells were non-induced cells treated in a similar manner. Positively stained cells were sorted as single cells into 96-well plates, containing Complete Medium containing 500 μg ml^−1 Zeocin™ and allowed to expand before reanalysis for receptor expression via antibody and ligand binding studies. One clone, 3H3, was selected for membrane preparation.
(ii) Membrane Preparation from Cultured Cells
All steps of the protocol are carried out at 4° C. and with pre-cooled reagents. The cell pellet is resuspended in 10 volumes of homogenisation buffer (50 mM N-2-hydroxyethylpiperazine-N′-2-ethanesulfonic acid (HEPES), 1 mM ethylenediamine tetra-acetic acid (EDTA), pH 7.4 with KOH, supplemented with 10e-6M leupeptin (acetyl-leucyl-leucyl-arginal; Sigma L2884), 25 μg/ml bacitracin (Sigma B0125), 1 mM phenylmethylsulfonyl fluoride (PMSF) and 2×10 e-6M pepstain A (Sigma)). […]

histamine H3 receptor [2] = target: T1, histamine H3 receptor; test: Histamine H3 functional antagonist assay (method B), [35S]-GTPγS SPA on membranes; assay type: biochemical; conditions: functional pKi, membrane from cultured H3 cells (CHO K1), histamine at EC80, averages of a number of experiments, read-out: Antagonism (fpKi) (converted)
From the text: as §1, §2
as §3, with “(Qiagen). […]” for “(Qiagen).”
10-14 days post selection 10 nM Mifepristone (InVitrogen), was added to the culture medium to induce the expression of the receptor. […] Receptor bound antibody was detected by incubation of the cells for 60 minutes on ice with a goat anti rabbit antibody, conjugated with Alexa 488 fluorescence marker (Molecular Probes). Following two further washes with Sorting Medium, cells were filtered through a 50 μm Filcon™ (BD Biosciences) and then analysed on a FACS Vantage SE Flow Cytometer fitted with an Automatic Cell Deposition Unit. […]

| Ki (histamine H3 receptor [1]) | Ki (histamine H3 receptor [2]) | SMILES |
| --- | --- | --- |
| 0.126 nM | – | Cc1noc(-c2cnc(Oc3ccc4c(c3)CCN(C3CCCC3)CC4)cn2)n1 [Compound 7, 3-Cyclopentyl-7-{[5-(3-methyl-1,2,4-oxadiazol-5-yl)-2-pyrazinyl]oxy}-2,3,4,5-tetrahydro-1H-3-benzazepine] |
| 0.1 nM | – | Cc1noc(-c2ccc(Oc3ccc4c(c3)CCN(C3CCC3)CC4)nc2)n1 [Compound 8, 3-Cyclobutyl-7-{[5-(3-methyl-1,2,4-oxadiazol-5-yl)-2-pyridinyl]oxy}-2,3,4,5-tetrahydro-1H-3-benzazepine] |
| 0.251 nM | – | Cc1noc(-c2ccc(Oc3ccc4c(c3)CCN(C3CCCC3)CC4)nc2)n1 [Compound 9, 3-Cyclopentyl-7-{[5-(3-methyl-1,2,4-oxadiazol-5-yl)-2-pyridinyl]oxy}-2,3,4,5-tetrahydro-1H-3-benzazepine] |
| 0.126 nM | – | O=C1CCCN1c1ccc(Oc2ccc3c(c2)CCN(C2CCCC2)CC3)nn1 [Compound 6, 1-{6-[(3-Cyclopentyl-2,3,4,5-tetrahydro-1H-3-benzazepin-7-yl)oxy]-3-pyridazinyl}-2-pyrrolidinone] |

Second part, the compound before the results:

| SMILES | Ki (histamine H3 receptor [1]) | Ki (histamine H3 receptor [2]) |
| --- | --- | --- |
| O=C1OCCN1c1ccc(Oc2ccc3c(c2)CCN(C2CCCC2)CC3)nn1 [Compound 5, 3-{6-[(3-Cyclopentyl-2,3,4,5-tetrahydro-1H-3-benzazepin-7-yl)oxy]-3-pyridazinyl}-1,3-oxazolidin-2-one] | 0.0501 nM | – |
| O=C1CCCN1c1ccc(Oc2ccc3c(c2)CCN(C2CCCC2)CC3)nc1 [Compound 1, 1-{6-[(3-Cyclopentyl-2,3,4,5-tetrahydro-1H-3-benzazepin-7-yl)oxy]-3-pyridinyl}-2-pyrrolidinone] | 0.0794 nM | 0.158 nM |
| CN1CCN(c2ccc(Oc3ccc4c(c3)CCN(C3CCC3)CC4)c(F)c2)C1=O [Compound 3, 1-{4-[(3-Cyclobutyl-2,3,4,5-tetrahydro-1H-3-benzazepin-7-yl)oxy]-3-fluorophenyl}-3-methyl-2-imidazolidinone] | 0.0501 nM | 0.158 nM |
| O=C1CCCN1c1ccc(Oc2ccc3c(c2)CCN(C2CCC2)CC3)cc1 [Compound 4, 1-{4-[(3-Cyclobutyl-2,3,4,5-tetrahydro-1H-3-benzazepin-7-yl)oxy]phenyl}-2-pyrrolidinone] | 0.158 nM | – |
| O=C1CCCN1c1cnc(Oc2ccc3c(c2)CCN(C2CCCC2)CC3)cn1 [Compound 2, 1-{5-[(3-Cyclopentyl-2,3,4,5-tetrahydro-1H-3-benzazepin-7-yl)oxy]-2-pyrazinyl}-2-pyrrolidinone] | 0.0794 nM | 0.158 nM |
